Source: patent publication US7795457B2, “Carbamate compounds” (Kosan Biosciences Incorporated, priority 2007, dated 2010)
Where two headings read alike, the source gives them in different places.

Experiments:
HepG2 = test: Inhibition of tumor cell proliferation, HepG2; format: cell-based; details: Homo sapiens
Protocol: (§1) The biological activity of compounds of this invention was evaluated by measuring their inhibitory effect on the proliferation of various tumor cell lines. HCT-116 is a human colon cancer cell line. LNCap is a human prostate cancer cell line. SiHa is an HPV-16 positive human cervical cancer line.
(§2) Table D presents additional data for the activity of compounds A-1 and A-4 against various cell lines. In some instances, comparative data against leptomycin B (LMB) and/or compound VI (Dong et al., US 2005/0272727 A1 (2005) is also provided.
(§3) The additional cell lines tested against represent a variety of different cancers: bladder cancer (UM-UC-3), breast cancer (BT474, HCC1937, MDA-MB468, NCI-ADR), CNS cancer (U87MG (glioma), SKNSH (neuroblastoma)), colon cancer (LoVo, LS411N, LS513), head and neck cancer (CAL-27, FaDu), leukemia (CCRF-CEM, MOLT-4), liver cancer (HepG2), lung cancer (A549, NCI-H23, NCI-H358), melanoma (Colo829), ovarian cancer (OVCAR-4), pancreatic cancer (BxPC-3, Mia-PaCa2), prostate cancer (22Rv1, PC-3), and renal cancer (A-498, Caki-1).

U87MG = test: Inhibition of tumor cell proliferation, U87MG; format: cell-based; details: Homo sapiens, U-87 MG
Protocol: as §1, §2, §3

NCI-H358 = test: Inhibition of tumor cell proliferation, NCI-H358; format: cell-based; details: Homo sapiens
Protocol: as §1, §2, §3

NCI-ADR = test: Inhibition of tumor cell proliferation, NCI-ADR; format: cell-based; details: Homo sapiens, NCI/ADR-RES, read-out: IC50, nM, NCI-ADR
Protocol: as §1, §2, §3

Colo829 = test: Inhibition of tumor cell proliferation, Colo829; format: cell-based; details: Homo sapiens, COLO-829
Protocol: as §1, §2, §3

FaDu = test: Inhibition of tumor cell proliferation, FaDu; format: cell-based; details: Homo sapiens
Protocol: as §1, §2, §3

HCT-116 = test: Inhibition of tumor cell proliferation, HCT-116; format: cell-based, human; details: Homo sapiens, read-out: Cancer Cell Line (IC50, nM) HCT-116
Protocol: as §1

NCI-H23 = test: Inhibition of tumor cell proliferation, NCI-H23; format: cell-based; details: Homo sapiens
Protocol: as §1, §2, §3

BT474 = test: Inhibition of tumor cell proliferation, BT474; format: cell-based; details: Homo sapiens, BT-474
Protocol: as §1, §2, §3

Mia-PaCa2 = test: Inhibition of tumor cell proliferation, Mia-PaCa2; format: cell-based; details: Homo sapiens, MIA PaCa-2
Protocol: as §1, §2, §3

HCC1937 = test: Inhibition of tumor cell proliferation, HCC1937; format: cell-based; details: Homo sapiens
Protocol: as §1, §2, §3

LS411N = test: Inhibition of tumor cell proliferation, LS411N; format: cell-based; details: Homo sapiens, LS-411N
Protocol: as §1, §2, §3

22Rv1 = test: Inhibition of tumor cell proliferation, 22Rv1; format: cell-based; details: Homo sapiens
Protocol: as §1, §2, §3

LNCap = test: Inhibition of tumor cell proliferation, LNCap; format: cell-based, human; details: Homo sapiens, LNCaP, read-out: Cancer Cell Line (IC50, nM) LNCap
Protocol: as §1

OVCAR-4 = test: Inhibition of tumor cell proliferation, OVCAR-4; format: cell-based; details: Homo sapiens
Protocol: as §1, §2, §3

UM-UC-3 = test: Inhibition of tumor cell proliferation, UM-UC-3; format: cell-based; details: Homo sapiens, read-out: IC50, nM, UM-UC-3
Protocol: as §1, §2, §3

CAL-27 = test: Inhibition of tumor cell proliferation, CAL-27; format: cell-based; details: Homo sapiens
Protocol: as §1, §2, §3

SiHa = test: Inhibition of tumor cell proliferation, SiHa; format: cell-based, human; details: Homo sapiens, SiHa, read-out: Cancer Cell Line (IC50, nM) SiHa
Protocol: as §1

CRM1 substrate RanBP1 = test: Nuclear export block (RanBP1 localization, recovery after compound removal); format: cell-based; details: recovery of cytoplasmic RanBP1 localization after compound washout (typically 1 h exposure; 8, 24 or 48 h recovery)
Protocol: The nuclear export blocking capability of compounds of this invention was evaluated as follows:
1-5×10^4 cells were seeded onto 12 mm glass coverslips or wells of a chamber slide (for example, Lab-Tek #177445). Cells were grown overnight at 37° C. to allow cells to attach to the surface. Media was removed and replaced with media containing the desired test compound and incubated the required time period (typically 1 h). For recovery experiments, cells were washed with PBS or media and incubated in media without test compound for the desired recovery periods (typically 8, 24, or 48 h). The media was removed and coverslips/wells were washed with PBS pH 7.4 for 1 minute. Coverslips or slides were fixed with 3.7% formaldehyde in PBS for 20 minutes at room temperature, washed three times in PBS, and stained for the CRM1 substrate RanBP1.
Coverslips or chamber slides were permeabilized and blocked in 10% donkey serum, 0.1% Triton X-100 in PBS for 30 minutes at room temperature. Primary antibodies were diluted in PBS and incubated for 1 hour at room temperature: goat-anti-RanBP1 (Santa Cruz Biotechnology, sc-1160; 1:50 dilution) and mouse-anti-tubulin (Sigma, T9026; 1:400). Cells were washed 3×5 minutes in PBS. Secondary antibodies donkey-anti-goat Cy3 (705-165-147, Jackson Immunoresearch) and donkey anti-mouse FITC (715-095-150, Jackson Immunoresearch) were diluted 1:200 in PBS and incubated for 1 hour at room temperature. Secondary antibody was removed and cells were stained with a nuclear dye such as DAPI (Sigma, D8417; 2.5 ug/mL in PBS) or Hoechst 33342 (Molecular Probes, H3570; 100 ng/mL in PBS) for 5 minutes at room temperature. Cells were washed 3×5 minutes in PBS and coverslips were mounted with FluorSave (EMD Biosciences, 80058-108). Nuclear (N) or cytoplasmic (C) localization of RanBP1 was examined using a 40× objective on a Zeiss Axiovert 200 inverted epiflourescence microscope. Nuclear localization (N>C) was confirmed after the initial drugging period.

LS513 = test: Inhibition of tumor cell proliferation, LS513; format: cell-based; details: Homo sapiens, LS-513
Protocol: as §1, §2, §3

A-498 = test: Inhibition of tumor cell proliferation, A-498; format: cell-based; details: Homo sapiens, A498; exposure time 1 h
Protocol: as §1, §2, §3

SKNSH = test: Inhibition of tumor cell proliferation, SKNSH; format: cell-based; details: Homo sapiens, SK-N-SH, read-out: IC50, nM, SKNSH
Protocol: as §1, §2, §3

A549 = test: Inhibition of tumor cell proliferation, A549; format: cell-based; details: Homo sapiens, A549, 1 h, read-out: IC50, nM, A549
Protocol: as §1, §2, §3

LoVo = test: Inhibition of tumor cell proliferation, LoVo; format: cell-based; details: Homo sapiens, exposure time 1 h
Protocol: as §1, §2, §3

Caki-1 = test: Inhibition of tumor cell proliferation, Caki-1; format: cell-based; details: Homo sapiens, exposure time 1 h
Protocol: as §1, §2, §3

MOLT-4 = test: Inhibition of tumor cell proliferation, MOLT-4; format: cell-based; details: Homo sapiens, exposure time 72 h
Protocol: as §1, §2, §3

CCRF-CEM = test: Inhibition of tumor cell proliferation, CCRF-CEM; format: cell-based; details: Homo sapiens, exposure time 72 h
Protocol: as §1, §2, §3

PC-3 = test: Inhibition of tumor cell proliferation, PC-3; format: cell-based; details: Homo sapiens
Protocol: as §1, §2, §3

MDA-MB-468 = test: Inhibition of tumor cell proliferation, MDA-MB-468; format: cell-based; details: Homo sapiens, exposure time 1 h
Protocol: as §1, §2, §3

Q: With CC(=C/[C@H](C)C/C=C/C(C)=C/[C@@H](C)C(=O)[C@@H](C)[C@H](OC(N)=O)[C@@H](C)C/C(C)=C/COC(N)=O)/C=C/[C@H]1CC=CC(=O)O1 [Compound A-4] as the molecule, how does the IC50 (HepG2; exposure time 1 h) read?
A: 7.8 nM

Q: What about the IC50 (HepG2; exposure time 72 h) of the same molecule?
A: 0.8 nM

Q: And the IC50 (U87MG; exposure time 1 h)?
A: 25.5 nM

Q: What about the IC50 (U87MG; exposure time 72 h) of the same molecule?
A: 1.5 nM

Q: What about the IC50 (NCI-H358; exposure time 1 h) of the same molecule?
A: 5.6 nM

Q: And the IC50 (NCI-H358; exposure time 72 h)?
A: 0.7 nM

Q: And the IC50 (NCI-ADR; 1 h)?
A: 771 nM

Q: And the IC50 (NCI-ADR; 72 h)?
A: 71.3 nM

Q: What about the IC50 (Colo829; exposure time 1 h) of the same molecule?
A: 4.6 nM

Q: What about the IC50 (Colo829; exposure time 72 h) of the same molecule?
A: 0.9 nM

Q: What about the IC50 (FaDu; exposure time 1 h) of the same molecule?
A: 27.9 nM

Q: What about the IC50 (FaDu; exposure time 72 h) of the same molecule?
A: 1.6 nM

Q: What about the IC50 (HCT-116; HCT-116, 1 h) of the same molecule?
A: 13.1 nM

Q: And the IC50 (HCT-116; HCT-116, 72 h)?
A: 2.2 nM

Q: And the IC50 (NCI-H23; exposure time 1 h)?
A: 8.5 nM

Q: What about the IC50 (NCI-H23; exposure time 72 h) of the same molecule?
A: 1.3 nM

Q: What about the IC50 (BT474; exposure time 1 h) of the same molecule?
A: 3.8 nM

Q: What about the IC50 (BT474; exposure time 72 h) of the same molecule?
A: 2.3 nM

Q: What about the IC50 (Mia-PaCa2; exposure time 1 h) of the same molecule?
A: 49.7 nM

Q: What about the IC50 (Mia-PaCa2; exposure time 72 h) of the same molecule?
A: 10.8 nM

Q: What about the IC50 (HCC1937; exposure time 1 h) of the same molecule?
A: 42.3 nM

Q: And the IC50 (HCC1937; exposure time 72 h)?
A: 7.3 nM

Q: And the IC50 (LS411N; exposure time 1 h)?
A: 9.4 nM

Q: What about the IC50 (LS411N; exposure time 72 h) of the same molecule?
A: 1.6 nM

Q: What about the IC50 (22Rv1; exposure time 1 h) of the same molecule?
A: 4.6 nM

Q: And the IC50 (22Rv1; exposure time 72 h)?
A: 0.7 nM

Q: What about the IC50 (LNCap; 1 h) of the same molecule?
A: 6.6 nM

Q: What about the IC50 (LNCap; 72 h) of the same molecule?
A: 1.5 nM

Q: And the IC50 (OVCAR-4; exposure time 1 h)?
A: 80 nM

Q: What about the IC50 (OVCAR-4; exposure time 72 h) of the same molecule?
A: 8.8 nM

Q: What about the IC50 (UM-UC-3; UMUC3, 1 h) of the same molecule?
A: 7 nM

Q: And the IC50 (UM-UC-3; UMUC3, 72 h)?
A: 1.4 nM

Q: And the IC50 (CAL-27; exposure time 1 h)?
A: 2.8 nM

Q: What about the IC50 (CAL-27; exposure time 72 h) of the same molecule?
A: 0.5 nM

Q: What about the IC50 (SiHa; 1 h) of the same molecule?
A: 3.6 nM

Q: And the IC50 (SiHa; 72 h)?
A: 0.8 nM

Q: And the “Nuclear Export Block” value (CRM1 substrate RanBP1)?
A: Moderate recovery

Q: What about the IC50 (LS513; exposure time 1 h) of the same molecule?
A: 6.3 nM

Q: What about the IC50 (LS513; exposure time 72 h) of the same molecule?
A: 1 nM

Q: And the IC50 (A-498)?
A: 16 nM

Q: CC(=C/[C@H](C)C/C=C/C(C)=C/[C@@H](C)C(=O)[C@@H](C)[C@H](O)[C@@H](C)C/C(C)=C/COC(=O)NCc1ccccc1)/C=C/[C@H]1CC=CC(=O)O1 [Compound A-1] was tested. Which IC50 (SKNSH; 1 h) did it give?
A: 5.1 nM

Q: And the IC50 (SKNSH; 72 h)?
A: 1.5 nM

Q: What about the IC50 (NCI-ADR; 1 h) of the same molecule?
A: 194 nM

Q: And the IC50 (NCI-ADR; 72 h)?
A: 20.6 nM

Q: And the IC50 (A549)?
A: 23.5 nM

Q: And the IC50 (LoVo)?
A: 10.3 nM

Q: And the IC50 (HCT-116; HCT-116, 1 h)?
A: 14.9 nM

Q: What about the IC50 (HCT-116; HCT-116, 72 h) of the same molecule?
A: 3.3 nM

Q: What about the IC50 (Caki-1) of the same molecule?
A: 6.6 nM

Q: What about the IC50 (LNCap; 1 h) of the same molecule?
A: 4.7 nM

Q: What about the IC50 (LNCap; 72 h) of the same molecule?
A: 1.8 nM

Q: What about the IC50 (MOLT-4) of the same molecule?
A: 3.2 nM

Q: What about the IC50 (CCRF-CEM) of the same molecule?
A: 4.2 nM

Q: And the IC50 (PC-3; exposure time 1 h)?
A: 7.4 nM

Q: What about the IC50 (PC-3; exposure time 72 h) of the same molecule?
A: 2.7 nM

Q: What about the IC50 (MDA-MB-468) of the same molecule?
A: 30.6 nM

Q: And the IC50 (SiHa; 1 h)?
A: 3.6 nM

Q: And the IC50 (SiHa; 72 h)?
A: 1.1 nM

Q: What about the “Nuclear Export Block” value (CRM1 substrate RanBP1) of the same molecule?
A: Slow recovery

Q: And the IC50 (A-498)?
A: 16 nM
